This experiment has as its target Recombinant Human Poly(ADP-Ribose) Polymerase (PARP), PARP-1 (Homo sapiens (Human), UniProt P09874). The following applies: read-out: PARP-1 (Ki); Table 1; text calls the values EC50s.

As a reminder, the Ki is the dissociation constant of the complex between target and ligand, obtained from inhibition or displacement.

Chain of Recombinant Human Poly(ADP-Ribose) Polymerase (PARP), PARP-1 (P09874 whole entry): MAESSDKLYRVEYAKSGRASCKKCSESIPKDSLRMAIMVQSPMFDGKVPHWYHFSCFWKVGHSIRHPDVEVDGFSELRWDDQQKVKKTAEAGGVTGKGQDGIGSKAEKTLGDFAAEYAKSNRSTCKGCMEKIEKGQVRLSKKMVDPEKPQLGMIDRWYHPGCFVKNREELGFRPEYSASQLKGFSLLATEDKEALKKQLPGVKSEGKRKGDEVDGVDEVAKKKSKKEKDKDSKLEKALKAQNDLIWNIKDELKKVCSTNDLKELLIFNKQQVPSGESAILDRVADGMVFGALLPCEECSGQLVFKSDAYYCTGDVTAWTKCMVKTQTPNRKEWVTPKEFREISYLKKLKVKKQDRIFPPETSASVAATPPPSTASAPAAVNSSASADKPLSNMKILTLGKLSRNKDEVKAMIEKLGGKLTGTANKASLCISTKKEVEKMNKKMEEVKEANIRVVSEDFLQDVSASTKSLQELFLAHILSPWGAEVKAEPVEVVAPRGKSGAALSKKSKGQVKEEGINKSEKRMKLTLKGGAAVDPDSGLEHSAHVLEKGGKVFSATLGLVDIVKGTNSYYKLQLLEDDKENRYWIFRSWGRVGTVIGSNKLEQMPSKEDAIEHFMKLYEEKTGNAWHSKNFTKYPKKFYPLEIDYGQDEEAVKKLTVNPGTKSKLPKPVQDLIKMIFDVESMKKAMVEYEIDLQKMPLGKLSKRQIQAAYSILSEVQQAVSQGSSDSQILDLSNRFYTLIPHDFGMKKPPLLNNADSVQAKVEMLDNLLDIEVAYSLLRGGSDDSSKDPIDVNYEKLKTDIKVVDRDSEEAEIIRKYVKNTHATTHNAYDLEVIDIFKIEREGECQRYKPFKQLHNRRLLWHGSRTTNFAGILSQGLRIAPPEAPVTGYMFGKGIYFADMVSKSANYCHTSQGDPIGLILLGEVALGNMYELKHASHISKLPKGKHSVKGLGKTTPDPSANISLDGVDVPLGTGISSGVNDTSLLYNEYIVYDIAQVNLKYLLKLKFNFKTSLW

For `Cn1cnc(C(=O)N2CCCN(C(=O)c3cc(Cc4n[nH]c(=O)c5c4CCCC5)ccc3F)CC2)c1` [Example 636, 4-[4-fluoro-3-({4-[(1-methyl-1H-imidazol-4-yl)carbonyl]-1,4-diazepan-1-yl}carbonyl)benzyl]-5,6,7,8-tetrahydrophthalazin-1(2H)-one], the Ki turned out to be 1.8 nM.

On to `Cn1cncc1C(=O)N1CCCN(C(=O)c2cc(Cc3n[nH]c(=O)c4c3CCCC4)ccc2F)CC1` [Example 637, 4-[4-fluoro-3-({4-[(1-methyl-1H-imidazol-5-yl)carbonyl]-1,4-diazepan-1-yl}carbonyl)benzyl]-5,6,7,8-tetrahydrophthalazin-1(2H)-one], for which the Ki was determined as 4 nM. Next, `O=C(c1cc(Cc2n[nH]c(=O)c3c2NCCC3)ccc1F)N1CCN(C(=O)C2CCCC2)CC1` [Example 640]: 0.7 nM; `O=C(c1ccc(Cl)cn1)N1CCN(C(=O)c2cc(Cc3n[nH]c(=O)c4c3NCCC4)ccc2F)CC1` [Example 641]: 1.3 nM; `CC(C)n1nnc2cc(C(=O)N3CCN(C(=O)c4cc(Cc5n[nH]c(=O)c6c5NCCC6)ccc4F)CC3)ccc21` [Example 643]: 1.2 nM. Then `CN1CCN(C2CCN(C(=O)c3cc(Cc4n[nH]c(=O)c5c4NCCC5)ccc3F)CC2)CC1` [Example 644], with 3 nM; and `O=C(c1ccc2ccccc2n1)N1CCN(C(=O)c2cc(Cc3n[nH]c(=O)c4c3NCCC4)ccc2F)CC1` [Example 645], with 1.5 nM; and `O=C(c1ccc(Cl)nc1)N1CCN(C(=O)c2cc(Cc3n[nH]c(=O)c4c3NCCC4)ccc2F)CC1` [Example 646], with 0.7 nM. Consider `CC(C)n1c(C(F)(F)F)nc2cc(C(=O)N3CCN(C(=O)c4cc(Cc5n[nH]c(=O)c6c5NCCC6)ccc4F)CC3)ccc21` [Example 647], for which the Ki was 1.7 nM. For the compound `O=C(c1ccc(O)nc1)N1CCN(C(=O)c2cc(Cc3n[nH]c(=O)c4c3NCCC4)ccc2F)CC1` [Example 649], the Ki was 0.6 nM.

As to `O=C(c1cnc(Cl)c(O)c1)N1CCN(C(=O)c2cc(Cc3n[nH]c(=O)c4c3NCCC4)ccc2F)CC1` [Example 651], the Ki was determined as 1.1 nM.

Regarding `Cc1nc2cc(C(=O)N3CCN(C(=O)c4cc(Cc5n[nH]c(=O)c6c5NCCC6)ccc4F)CC3)ccc2[nH]1` [Example 654], the inhibitory constant (Ki) came to 1.2 nM.

Turning to `O=C(c1ccc2nc[nH]c2c1)N1CCN(C(=O)c2cc(Cc3n[nH]c(=O)c4c3NCCC4)ccc2F)CC1` [Example 655], the Ki was determined as 0.7 nM. As for `O=C(c1cnc2ccccc2c1)N1CCN(C(=O)c2cc(Cc3n[nH]c(=O)c4c3NCCC4)ccc2F)CC1` [Example 657, 8-(4-fluoro-3-{[4-(quinolin-3-ylcarbonyl)piperazin-1-yl]carbonyl}benzyl)-2,3,4,6-tetrahydropyrido[2,3-d]pyridazin-5(1H)-one], the Ki came to 0.8 nM. Regarding `O=C(c1cc(Cc2n[nH]c(=O)c3c2NCCC3)ccc1F)N1CCN(C(=O)c2cccnc2Cl)CC1` [Example 658, 8-[3-({4-[(2-chloropyridin-3-yl)carbonyl]piperazin-1-yl}carbonyl)-4-fluorobenzyl]-2,3,4,6-tetrahydropyrido[2,3-d]pyridazin-5(1H)-one], the Ki was found to be 1 nM. Next, `O=C(OCc1ccccc1)N1CCCN(C(=O)c2cc(Cc3n[nH]c(=O)c4c3NCCC4)ccc2F)CC1` [Example 659, benzyl 4-{2-fluoro-5-[(5-oxo-1,2,3,4,5,6-hexahydropyrido[2,3-d]pyridazin-8-yl)methyl]benzoyl}-1,4-diazepane-1-carboxylate]: 2.5 nM; `O=C(c1ccncc1)N1CCN(C(=O)c2cc(Cc3n[nH]c(=O)c4c3NCCC4)ccc2F)CC1` [Example 660, 8-{4-fluoro-3-[(4-isonicotinoylpiperazin-1-yl)carbonyl]benzyl}-2,3,4,6-tetrahydropyrido[2,3-d]pyridazin-5(1H)-one]: 1.4 nM; `O=C(c1cccnc1)N1CCN(C(=O)c2cc(Cc3n[nH]c(=O)c4c3NCCC4)ccc2F)CC1` [Example 661, 8-(4-fluoro-3-{[4-(pyridin-3-ylcarbonyl)piperazin-1-yl]carbonyl}benzyl)-2,3,4,6-tetrahydropyrido[2,3-d]pyridazin-5(1H)-one]: 1.5 nM. Next, `O=C(c1cnccn1)N1CCN(C(=O)c2cc(Cc3n[nH]c(=O)c4c3NCCC4)ccc2F)CC1` [Example 662, 8-(4-fluoro-3-{[4-(pyrazin-2-ylcarbonyl)piperazin-1-yl]carbonyl}benzyl)-2,3,4,6-tetrahydropyrido[2,3-d]pyridazin-5(1H)-one]: 1.5 nM; `O=C(c1ccc2[nH]cnc2c1)N1CCN(C(=O)c2cc(Cc3n[nH]c(=O)c4c3NCCC4)ccc2F)CC1` [Example 663, 8-(3-{[4-(1H-benzimidazol-5-ylcarbonyl)piperazin-1-yl]carbonyl}-4-fluorobenzyl)-2,3,4,6-tetrahydropyrido[2,3-d]pyridazin-5(1H)-one]: 1 nM; `O=C(c1cncnc1)N1CCN(C(=O)c2cc(Cc3n[nH]c(=O)c4c3NCCC4)ccc2F)CC1` [Example 664, 8-(4-fluoro-3-{[4-(pyrimidin-5-ylcarbonyl)piperazin-1-yl]carbonyl}benzyl)-2,3,4,6-tetrahydropyrido[2,3-d]pyridazin-5(1H)-one]: 1.3 nM. As for `O=C(c1ccccn1)N1CCN(C(=O)c2cc(Cc3n[nH]c(=O)c4c3NCCC4)ccc2F)CC1` [Example 665, 8-(4-fluoro-3-{[4-(pyridin-2-ylcarbonyl)piperazin-1-yl]carbonyl}benzyl)-2,3,4,6-tetrahydropyrido[2,3-d]pyridazin-5(1H)-one], the Ki stood at 1.1 nM.

For `CCOC(=O)N1CCN(C(=O)c2cc(Cc3n[nH]c(=O)c4c3NCCC4)ccc2F)CC1` [Example 666, ethyl 4-{2-fluoro-5-[(5-oxo-1,2,3,4,5,6-hexahydropyrido[2,3-d]pyridazin-8-yl)methyl]benzoyl}piperazine-1-carboxylate], the Ki is 1.5 nM.

On to `CC1(C)C(=O)NCCN1C(=O)c1cc(Cc2n[nH]c(=O)c3c2NCCC3)ccc1F` [Example 667, 8-{3-[(2,2-dimethyl-3-oxopiperazin-1-yl)carbonyl]-4-fluorobenzyl}-2,3,4,6-tetrahydropyrido[2,3-d]pyridazin-5(1H)-one], for which the Ki came out at 20 nM. `C[C@@H]1CN(C(=O)c2ccccc2)CCN1C(=O)c1cc(Cc2n[nH]c(=O)c3c2CCCC3)ccc1F` [Example 668, 4-(3-{[(2R)-4-benzoyl-2-methylpiperazin-1-yl]carbonyl}-4-fluorobenzyl)-5,6,7,8-tetrahydrophthalazin-1(2H)-one]: the Ki was determined as 1.9 nM. Turning to `O=C(c1cc(Cc2n[nH]c(=O)c3c2CCCC3)ccc1F)N1CCN(c2ncncn2)CC1` [Example 669, 4-(4-fluoro-3-{[4-(1,3,5-triazin-2-yl)piperazin-1-yl]carbonyl}benzyl)-5,6,7,8-tetrahydrophthalazin-1(2H)-one], the Ki worked out at 1.2 nM.

For `O=C(c1cscn1)N1CCN(C(=O)c2cc(Cc3n[nH]c(=O)c4c3CCCC4)ccc2F)CC1` [Example 674, 4-(4-fluoro-3-{[4-(1,3-thiazol-4-ylcarbonyl)piperazin-1-yl]carbonyl}benzyl)-5,6,7,8-tetrahydrophthalazin-1(2H)-one], the inhibition constant Ki is 1.1 nM. Next, `O=C1CCC(C(=O)N2CCN(C(=O)c3cc(Cc4n[nH]c(=O)c5c4CCCC5)ccc3F)CC2)N1` (stereo not drawn) [Example 675, 4-[4-fluoro-3-({4-[(5-oxopyrrolidin-2-yl)carbonyl]piperazin-1-yl}carbonyl)benzyl]-5,6,7,8-tetrahydrophthalazin-1(2H)-one]: 1.2 nM.

Consider `CC1(C)SCN[C@@H]1C(=O)N1CCN(C(=O)c2cc(Cc3n[nH]c(=O)c4c3CCCC4)ccc2F)CC1` [Example 677, 4-{3-[(4-{[(4R)-5,5-dimethyl-1,3-thiazolidin-4-yl]carbonyl}piperazin-1-yl)carbonyl]-4-fluorobenzyl}-5,6,7,8-tetrahydrophthalazin-1(2H)-one], for which the Ki worked out at 1.5 nM.

As to `O=C(c1cc[nH]n1)N1CCN(C(=O)c2cc(Cc3n[nH]c(=O)c4c3CCCC4)ccc2F)CC1` [Example 678, 4-(4-fluoro-3-{[4-(1H-pyrazol-3-ylcarbonyl)piperazin-1-yl]carbonyl}benzyl)-5,6,7,8-tetrahydrophthalazin-1(2H)-one], the Ki stood at 1.1 nM. For `O=C(c1cnccn1)N1CCN(C(=O)c2cc(Cc3n[nH]c(=O)c4c3CCCC4)ccc2F)CC1` [Example 679, 4-(4-fluoro-3-{[4-(pyrazin-2-ylcarbonyl)piperazin-1-yl]carbonyl}benzyl)-5,6,7,8-tetrahydrophthalazin-1(2H)-one], the Ki was 1.4 nM.

Take `O=C(c1ccc2[nH]cnc2c1)N1CCN(C(=O)c2cc(Cc3n[nH]c(=O)c4c3CCCC4)ccc2F)CC1` [Example 680, 4-(3-{[4-(1H-benzimidazol-5-ylcarbonyl)piperazin-1-yl]carbonyl}-4-fluorobenzyl)-5,6,7,8-tetrahydrophthalazin-1(2H)-one]: the Ki is 1.1 nM. Regarding `O=C(c1ccncc1)N1CCCN(C(=O)c2cc(Cc3n[nH]c(=O)c4c3NCCC4)ccc2F)CC1` [Example 682, 8-{4-fluoro-3-[(4-isonicotinoyl-1,4-diazepan-1-yl)carbonyl]benzyl}-2,3,4,6-tetrahydropyrido[2,3-d]pyridazin-5(1H)-one], the Ki is 2.4 nM. Next, `O=C(c1cccnc1)N1CCCN(C(=O)c2cc(Cc3n[nH]c(=O)c4c3NCCC4)ccc2F)CC1` [Example 683, 8-(4-fluoro-3-{[4-(pyridin-3-ylcarbonyl)-1,4-diazepan-1-yl]carbonyl}benzyl)-2,3,4,6-tetrahydropyrido[2,3-d]pyridazin-5(1H)-one]: 2.6 nM. Regarding `O=C(c1ccccn1)N1CCCN(C(=O)c2cc(Cc3n[nH]c(=O)c4c3NCCC4)ccc2F)CC1` [Example 684, 8-(4-fluoro-3-{[4-(pyridin-2-ylcarbonyl)-1,4-diazepan-1-yl]carbonyl}benzyl)-2,3,4,6-tetrahydropyrido[2,3-d]pyridazin-5(1H)-one], the Ki is 2.8 nM. Consider `O=C(c1cncnc1)N1CCCN(C(=O)c2cc(Cc3n[nH]c(=O)c4c3NCCC4)ccc2F)CC1` [Example 685, 8-(4-fluoro-3-{[4-(pyrimidin-5-ylcarbonyl)-1,4-diazepan-1-yl]carbonyl}benzyl)-2,3,4,6-tetrahydropyrido[2,3-d]pyridazin-5(1H)-one], for which the Ki is 2.2 nM.

The values above are taken from patent US9283222B2 (priority 2006, dated 2016).
